Experimental data as given in US10265411B2, “N-optionally substituted aryl-2-oligomer-3-alkoxypropionamides” (Nektar Therapeutics, priority 2010, dated 2019).
Where two headings read alike, the source gives them in different places.

Legend:
[1] = target: T1, cloned hNav1.8 channels expressed in CHO cells (Homo sapiens, UniProt Q9Y5Y9); assay: Na+ channel blocking examination, automated whole-cell patch clamp (IonWorks Quattro); assay type: cell-based; conditions: for IC50: hNav1.8 in CHO cells; for block of hNav1.8 channels in the inactivated state, potency relative to control (lacosamide): in words
T1 construct: expressed in transfected cells
T1 sequence (Q9Y5Y9 whole entry): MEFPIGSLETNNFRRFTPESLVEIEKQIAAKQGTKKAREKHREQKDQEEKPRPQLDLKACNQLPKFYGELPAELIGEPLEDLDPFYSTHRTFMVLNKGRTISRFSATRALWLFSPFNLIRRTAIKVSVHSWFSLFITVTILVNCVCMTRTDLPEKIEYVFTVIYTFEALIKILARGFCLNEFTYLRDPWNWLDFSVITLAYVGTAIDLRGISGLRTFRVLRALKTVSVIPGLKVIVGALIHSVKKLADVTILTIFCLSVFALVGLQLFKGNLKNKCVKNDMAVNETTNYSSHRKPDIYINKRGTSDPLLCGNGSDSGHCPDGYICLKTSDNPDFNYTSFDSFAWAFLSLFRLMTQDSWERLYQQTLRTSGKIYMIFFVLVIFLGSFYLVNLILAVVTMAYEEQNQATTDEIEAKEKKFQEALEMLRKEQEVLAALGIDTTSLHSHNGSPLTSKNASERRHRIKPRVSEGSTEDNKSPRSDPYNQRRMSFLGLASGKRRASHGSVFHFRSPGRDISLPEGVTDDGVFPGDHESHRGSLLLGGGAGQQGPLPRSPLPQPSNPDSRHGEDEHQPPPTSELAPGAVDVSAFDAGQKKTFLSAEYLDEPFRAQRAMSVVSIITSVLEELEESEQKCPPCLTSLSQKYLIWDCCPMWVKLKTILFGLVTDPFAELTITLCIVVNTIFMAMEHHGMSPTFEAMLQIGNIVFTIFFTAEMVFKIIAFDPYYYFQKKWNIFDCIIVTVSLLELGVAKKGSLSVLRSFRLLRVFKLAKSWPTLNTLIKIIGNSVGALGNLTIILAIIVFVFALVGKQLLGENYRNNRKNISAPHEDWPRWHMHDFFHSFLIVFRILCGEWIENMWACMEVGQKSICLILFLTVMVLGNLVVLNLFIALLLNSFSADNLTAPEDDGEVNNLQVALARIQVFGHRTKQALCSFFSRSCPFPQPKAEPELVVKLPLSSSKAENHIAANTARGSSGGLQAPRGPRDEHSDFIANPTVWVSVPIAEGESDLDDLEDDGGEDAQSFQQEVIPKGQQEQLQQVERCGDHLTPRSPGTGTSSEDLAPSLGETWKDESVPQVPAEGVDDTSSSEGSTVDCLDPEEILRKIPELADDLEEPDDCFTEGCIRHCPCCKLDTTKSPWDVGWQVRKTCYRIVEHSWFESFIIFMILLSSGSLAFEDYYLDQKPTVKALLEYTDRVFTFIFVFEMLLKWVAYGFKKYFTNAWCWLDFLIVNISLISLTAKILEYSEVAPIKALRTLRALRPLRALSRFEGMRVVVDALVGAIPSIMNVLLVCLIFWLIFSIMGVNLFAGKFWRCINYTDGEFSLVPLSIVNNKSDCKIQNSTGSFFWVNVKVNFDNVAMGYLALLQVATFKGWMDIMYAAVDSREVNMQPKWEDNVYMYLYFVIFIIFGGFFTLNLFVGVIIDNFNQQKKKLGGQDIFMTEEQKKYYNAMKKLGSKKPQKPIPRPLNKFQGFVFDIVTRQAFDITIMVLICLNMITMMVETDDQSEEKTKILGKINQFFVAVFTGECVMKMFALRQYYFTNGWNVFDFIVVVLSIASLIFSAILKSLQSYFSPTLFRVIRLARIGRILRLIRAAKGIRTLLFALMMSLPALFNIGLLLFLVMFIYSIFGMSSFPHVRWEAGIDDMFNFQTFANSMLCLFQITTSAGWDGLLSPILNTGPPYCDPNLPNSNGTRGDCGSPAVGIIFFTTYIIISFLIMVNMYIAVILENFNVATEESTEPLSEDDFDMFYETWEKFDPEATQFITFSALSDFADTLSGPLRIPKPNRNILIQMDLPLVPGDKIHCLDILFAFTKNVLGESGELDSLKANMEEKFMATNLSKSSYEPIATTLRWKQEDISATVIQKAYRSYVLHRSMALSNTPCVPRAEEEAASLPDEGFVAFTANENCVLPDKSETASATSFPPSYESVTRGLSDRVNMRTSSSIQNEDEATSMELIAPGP
Description: Using an automated whole-cell patch-clamp approach, the in vitro effects of oligomer-containing compounds of the invention (synthesis described in Example 1) on cloned hNav1.8 channels expressed in CHO cells relative to control (lacosamide) were evaluated.
The procedures used in this experiment followed those set forth in Sheets et al. (2008) J Pharmacol Exp Ther 326(1):89-99. Briefly, automated patch clamp electrophysiological procedures were carried out in the IonWorks Quattro™ system (Molecular Devices Corporation, Union City Calif.). In preparation for a current recording session, intracellular solution (140 mM KCl, 5 mM MgCl2, 0.5 mM EGTA, 10 mM HEPES, 0.1 mg/mL amphotericin B) was loaded into the intracellular compartment of the Population Patch Clamp™ (PPC) planar electrode. CHO cells stably expressing the human Nav1.8 sodium channel subtype were suspended in HEPES-buffered physiological saline solution (137 mM NaCl, 4 mM KCl, 1.8 mM CaCl2, 1 mM MgCl2, 10 mM HEPES, 10 mM Glucose, pH adjusted to 7.4 with NaOH) and pipetted into the wells of the PPC planar electrode. After establishment of a whole-cell configuration (the perforated patch), membrane currents were recorded using patch clamp amplifier in the IonWorks Quattro™ system. Test article concentrations, loaded in a 384-well compound plate, were applied to naïve cells (one concentration per cell) via steel needles of a 48-channel pipettor. Each application consisted of addition of 6 μL of 2× concentrated test article solution to the total 12 μL final volume of the extracellular well of the PPC planar electrode. The PPC well contents were then mixed (three times) following addition of test article. All experiments were performed at ambient temperature.
Block of hNav1.8 sodium channel was measured using a stimulus voltage pattern shown in FIG. 1, and voltage potentials are indicated in Table 1. The pulse pattern was repeated twice (once before addition of test article and the other five minutes after test article addition). Peak current amplitudes were measured at three test pulses: TP1 (tonic block), TP11 (frequency-dependent block at 10 Hz), and TP12 (inactivated state block).
Data acquisition and analyses were performed using the IonWorks Quattro™ system operation software (version 2.0.2; Molecular Devices Corporation, Union City, Calif.). Inhibition potencies were estimated from concentration-response curves fitted using the Hill function: % Block=% VC+{(100−% VC)−(100−% VC)/[1+([Test]/IC50)^N]}, where [Test] is the concentration of test article, IC50 is the concentration of the test article producing half-maximal inhibition, N is the Hill coefficient, % VC is the percentage of the current run-down (the mean current inhibition at the vehicle control) and % Block is the percentage of ion channel current inhibited at each concentration of the test article.

[2] = Solubility of test articles in dosing vehicle 0.5% CMC; assay type: physicochemical; conditions: 0.5% CMC (carboxymethylcellulose)
[3] = system: formalin-induced paw licking in the mouse; assay: Pain model: formalin-induced paw licking in the mouse; assay type: in vivo; conditions: for formalin-induced paw licking compared to saline, Phase 2: dose 200, PO, Phase 2 (15-30 minutes); for mice sedated / mice with splayed posture: 200 mg/kg orally
Description: In the formalin-induced paw licking model, a test compound is administered via oral gavage (“PO”) followed in thirty minutes by the subcutaneous injection of formalin to a hind paw of a mouse. Subcutaneous injection of formalin first causes a pain-inducing mechanical injury (involving bradykinin and substance P) in the first five minutes (“Phase 1”) followed by a pain-inducing inflammatory response (involving bradykinin, histamine, serotonin and prostaglandins) occurring between 15-30 minutes (“Phase 2”) following the formalin injection. Both pain-inducing stimuli causes a characteristic “paw licking” response. The amount of time spent licking the formalin-injected paw is measured during Phase 1 and Phase 2. If the test article has relatively good pain reducing properties, a reduction in the time spent licking the formalin-injected paw is observed compared to the saline control group. […] By measuring a series of test articles, it is possible to understand each test article's pain reducing activity relative to each other.

[4] = test pulse TP1 (tonic block), 5 min after test article addition, read-out: IC50, type of block: Tonic
[5] = test pulse TP11 (frequency-dependent block at 10 Hz), read-out: IC50, type of block: 10 Hz
[6] = test pulse TP12 (inactivated state block), read-out: IC50, type of block: Inactivated state
[7] = 30 min before formalin, in words

COCCOC(=O)N[C@H](COC)C(=O)NCc1ccccc1 [(2R) N-benzyl-2-carboxy mPEG1 amino-3-methoxy propionamide]
IC50 [1, 4]: > 300 µM
IC50 [1, 5]: > 300 µM
IC50 [1, 6]: 267 µM
block of hNav1.8 channels in the inactivated state, potency relative to control (lacosamide) [1]: potency comparable to control
solubility in vehicle [2]: not readily soluble

COCCOCCOC(=O)N[C@H](COC)C(=O)NCc1ccccc1 [(2R) N-benzyl-2-carboxy mPEG2 amino-3-methoxy propionamide]
IC50 [1, 4]: > 300 µM
IC50 [1, 5]: > 300 µM
IC50 [1, 6]: 166 µM
block of hNav1.8 channels in the inactivated state, potency relative to control (lacosamide) [1]: potency comparable to control
formalin-induced paw licking compared to saline, Phase 2 [3, 7]: showed a reduction

COCCOCCOCCOC(=O)N[C@H](COC)C(=O)NCc1ccccc1 [(2R) N-benzyl-2-carboxy mPEG3 amino-3-methoxy propionamide]
IC50 [1, 4]: > 300 µM
IC50 [1, 5]: > 300 µM
IC50 [1, 6]: 239 µM
block of hNav1.8 channels in the inactivated state, potency relative to control (lacosamide) [1]: potency comparable to control
formalin-induced paw licking compared to saline, Phase 2 [3, 7]: showed a reduction

COCCOCCOCCOCCOC(=O)N[C@H](COC)C(=O)NCc1ccccc1 [(2R) N-benzyl-2-carboxy mPEG4 amino-3-methoxy propionamide]
IC50 [1, 4]: > 300 µM
IC50 [1, 5]: > 300 µM
IC50 [1, 6]: > 300 µM
formalin-induced paw licking compared to saline, Phase 2 [3, 7]: showed a reduction

COCCOCCOCCOCCOCCOC(=O)N[C@H](COC)C(=O)NCc1ccccc1 [(2R) N-benzyl-2-carboxy mPEG5 amino-3-methoxy propionamide]
IC50 [1, 4]: > 300 µM
IC50 [1, 5]: > 300 µM
IC50 [1, 6]: > 300 µM
formalin-induced paw licking compared to saline, Phase 2 [3, 7]: showed a reduction

COCCOCCOCCOCCOCCOCCOC(=O)N[C@H](COC)C(=O)NCc1ccccc1 [(2R) N-benzyl-2-carboxy mPEG6 amino-3-methoxy propionamide]
IC50 [1, 4]: > 300 µM
IC50 [1, 5]: > 300 µM
IC50 [1, 6]: > 300 µM

COCCOCCOCCOCCOCCOCCOCCOC(=O)N[C@H](COC)C(=O)NCc1ccccc1 [(2R) N-benzyl-2-carboxy mPEG7 amino-3-methoxy propionamide]
IC50 [1, 4]: > 300 µM
IC50 [1, 5]: > 300 µM
IC50 [1, 6]: > 300 µM

COCCOCCOCCOCCOCCOCCOCCOCCOC(=O)N[C@H](COC)C(=O)NCc1ccccc1 [(2R) N-benzyl-2-carboxy mPEG8 amino-3-methoxy propionamide]
IC50 [1, 4]: > 300 µM
IC50 [1, 5]: > 300 µM
IC50 [1, 6]: > 300 µM

COCCOCCOCCOCCOCCOCCOCCOCCOCCOC(=O)N[C@H](COC)C(=O)NCc1ccccc1 [(2R) N-benzyl-2-carboxy mPEG9 amino-3-methoxy propionamide]
IC50 [1, 4]: > 300 µM
IC50 [1, 5]: > 300 µM
IC50 [1, 6]: > 300 µM

COC[C@@H](NC(C)=O)C(=O)NCc1ccccc1 [(R)—N-benzyl-2-acetamido-3-methoxy propionamide]
IC50 ([1]; IC50, type of block: 10 Hz, test pulse TP11 (frequency-dependent block at 10 Hz)): > 300 µM
IC50 ([1]; IC50, type of block: Inactivated state, test pulse TP12 (inactivated state block)): 278 µM
IC50 ([1]; IC50, type of block: Tonic, test pulse TP1 (tonic block), 5 min after test article addition): > 300 µM
formalin-induced paw licking time, Phase 1 ([3]; 200 mg/kg PO, 30 min before formalin, Phase 1 (first five minutes), in words): greatest reduction
mice sedated ([3]; Phase 1): 5/7
mice with splayed posture ([3]; Phase 1): 5/7
mice sedated ([3]; Phase 2): 6/7
mice with splayed posture ([3]; Phase 2): 7/7
formalin-induced paw licking compared to saline, Phase 2 [3, 7]: greatest reduction
solubility in vehicle [2]: not readily soluble
